Laboratory results reported in patent US20080038728A1, “Quadruple Transformed Cell Line Useful for the Identification of Transport Inhibitors” (priority 2004, published 2008).

What was measured:
ABCC2 [1] = biological target: T1, ABCC2 (Homo sapiens, UniProt Q92887); parameters: expressed in transfected cells; host or cells: MDCKII-ABCC2 single-transfected cells (membrane vesicles); settings: BSP: Cui et al., 2001; CCK-8: Letschert et al., 2005; cited from earlier work
ABCC2 [2] = biological target: T1, ABCC2; settings: MDCK
Protocol: ATP-dependent transport into inside-out membrane vesicles prepared from MDCKII-ABCC2 single-transfectants (ABCC2, closed circles) or vector-transfected MDCKII cells (Control, open circles) was measured for 1, 3, and 5 min as described in Example 1. Data are means ±SD determined from 3 measurements.
Transport of estrone 3-sulfate into inside-out membrane vesicles was performed using nick spin columns as described (Keppler et al., 1998). Membrane vesicles were prepared from MDCKII vector-transfected control cells and MDCKII-ABCC2 single transfected cells described by Cui et al. (1999) and Letschert et al. (2005). ATP-dependent transport was determined by subtracting values obtained in the presence of 5′-AMP from those in the presence of ATP.

[3] = test system: ABCC2 together with OATP1B1, OATP1B3, and OATP2B1; test: Transport studies (transcellular transport, intracellular accumulation) in all double- and quadruple-transfected MDCKII cells; type: in vitro ADME, human; settings: all 3 double-transfected and quadruple-transfected MDCKII cells, 5 μM BSP 15 min, 1 μM E3S, 0.5 μM Fluva in basolateral compartment
Protocol: (§1) (a) MDCKII cells were grown on ThinCerts (24-mm diameter, pore size 0.4 μm, pore density 1×10^8 per cm^2) and induced with butyrate as mentioned above. The cells were washed in prewarmed (37° C.) transport buffer (142 mM NaCl, 5 mM KCl, 1 mM KH2PO4, 1.2 mM MgSO4, 1.5 mM CaCl2, 5 mM glucose, and 12.5 mM HEPES, pH 7.3). The ^3H-labeled substrate was dissolved in transport buffer and added either to the apical or to the basolateral compartment at the concentration indicated. After incubation at 37° C., the radioactivity in the opposite compartment was measured by sampling aliquots from the apical or basolateral compartment. Cells were washed 2 times with ice-cold transport buffer containing 0.5% bovine serum albumin and 3 times in ice-cold transport buffer. Intracellular accumulation of radioactivity was calculated by lyzing the cells with 0.2% sodium dodecyl sulfate (SDS) and measuring the radioactivity in the lysate.
(b) Transport assays were further carried out as described in Cui et al., Mol. Pharmacol. 60 (2001), 934-43. The apical localization of MRP2 and the basolateral expression of OATP1B1, OATP1B3 and OATP2B1 in the quadruple transfectants was shown by the generation of polar proliferation of the cells after initial growing on Transwell membrane inserts (24 mm diameter, […] pore size, Corning Costar) and by use of confocal laser scanning microscopy. […]

OATP1B3 = biological target: T2, OATP1B3 (Homo sapiens, UniProt Q9NPD5); test: Uptake (intracellular accumulation) kinetics in ABCC2/OATP1B3 double-transfected MDCKII cells; type: in vitro ADME; parameters: expressed in transfected cells; host or cells: MDCKII (canine kidney), co-expressing ABCC2; settings: cell line ABCC2-OATP1B3, intracellular accumulation of 3H-labeled substrate
T2 sequence (Q9NPD5 1-702): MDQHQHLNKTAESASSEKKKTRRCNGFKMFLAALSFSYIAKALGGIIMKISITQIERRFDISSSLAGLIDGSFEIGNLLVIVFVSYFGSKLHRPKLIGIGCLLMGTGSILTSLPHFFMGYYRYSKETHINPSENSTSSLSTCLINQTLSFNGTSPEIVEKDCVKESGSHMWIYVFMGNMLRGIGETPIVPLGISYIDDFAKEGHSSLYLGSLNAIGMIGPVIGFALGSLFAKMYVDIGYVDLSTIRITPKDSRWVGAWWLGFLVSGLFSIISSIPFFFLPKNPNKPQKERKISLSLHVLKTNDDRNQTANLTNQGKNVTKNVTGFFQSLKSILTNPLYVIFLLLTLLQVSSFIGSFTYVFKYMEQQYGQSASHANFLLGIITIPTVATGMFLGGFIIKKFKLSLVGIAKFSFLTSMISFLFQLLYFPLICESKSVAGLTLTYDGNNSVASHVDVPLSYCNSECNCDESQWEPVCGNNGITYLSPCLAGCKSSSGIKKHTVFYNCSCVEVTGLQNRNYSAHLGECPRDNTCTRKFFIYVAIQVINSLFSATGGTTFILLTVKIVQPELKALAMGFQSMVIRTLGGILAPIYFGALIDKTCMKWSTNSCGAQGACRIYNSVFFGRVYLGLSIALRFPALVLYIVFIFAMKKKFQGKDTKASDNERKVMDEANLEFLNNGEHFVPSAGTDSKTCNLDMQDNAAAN
Protocol: as §1

[4] = test system: OATP1B1, OATP1B3, and OATP2B1; test: Uptake (intracellular accumulation) kinetics in ABCC2/OATP1B1/1B3/2B1 quadruple-transfected MDCKII cells; type: in vitro ADME, human; settings: human, pH 7.3, cell line ABCC2-OATP1B1/1B3/2B1 (quadruple-transfectant); intracellular accumulation of 3H-labeled substrate; read-out: Km
Protocol: as §1

OATP2B1 = biological target: T3, OATP2B1 (Homo sapiens, UniProt O94956); test: Uptake (intracellular accumulation) kinetics in ABCC2/OATP2B1 double-transfected MDCKII cells; type: in vitro ADME; parameters: expressed in transfected cells; host or cells: MDCKII (canine kidney) ABCC2 single-transfectant, further transfected with pcDNA3.1/Hygro(-)-OATP2B1; settings: human, MDCKII cells double-transfected with ABCC2 and OATP2B1, pH 7.3; cell line ABCC2-OATP2B1; intracellular accumulation of 3H-labeled substrate; 5-min uptake
T3 sequence (O94956 1-709): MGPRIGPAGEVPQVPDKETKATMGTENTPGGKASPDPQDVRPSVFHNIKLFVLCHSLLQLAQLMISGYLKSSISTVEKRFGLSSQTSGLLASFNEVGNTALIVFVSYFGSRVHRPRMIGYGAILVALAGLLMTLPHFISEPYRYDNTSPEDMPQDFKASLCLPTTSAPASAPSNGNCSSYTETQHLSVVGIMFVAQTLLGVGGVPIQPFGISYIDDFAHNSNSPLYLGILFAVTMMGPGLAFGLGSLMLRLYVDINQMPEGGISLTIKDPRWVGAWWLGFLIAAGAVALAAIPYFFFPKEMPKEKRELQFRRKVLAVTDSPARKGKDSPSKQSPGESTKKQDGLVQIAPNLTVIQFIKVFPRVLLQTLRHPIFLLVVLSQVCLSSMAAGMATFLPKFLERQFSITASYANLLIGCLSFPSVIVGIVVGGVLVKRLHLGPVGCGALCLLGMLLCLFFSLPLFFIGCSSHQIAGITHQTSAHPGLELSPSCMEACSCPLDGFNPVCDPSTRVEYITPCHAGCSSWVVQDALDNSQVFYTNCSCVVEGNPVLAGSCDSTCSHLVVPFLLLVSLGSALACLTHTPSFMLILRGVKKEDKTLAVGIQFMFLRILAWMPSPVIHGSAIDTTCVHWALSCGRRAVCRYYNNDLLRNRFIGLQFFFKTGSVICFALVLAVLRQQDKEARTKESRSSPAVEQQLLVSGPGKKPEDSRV
Protocol: as §1, with “The cells were washed in prewarmed (37° C.) transport buffer (142 mM NaCl, 5 mM KCl, 1 mM KH2PO4, 1.2 mM MgSO4, 1.5 mM CaCl2, 5 mM glucose, and 12.5 mM HEPES, pH 7.3).” left out

MDCKII cell clones = test: Transcellular leakage of [3H]inulin across MDCKII cell monolayers; type: in vitro ADME, canine; settings: 1 μM [3H]inulin in basolateral compartment, apical radioactivity after 30 min; all MDCKII cell clones
Protocol: The transcellular leakage was determined by addition of 1 μM [^3H]inulin to the basolateral compartment and measurement of the radioactivity appearing in the apical compartment after an incubation period of 30 min. The transcellular leakage was 1-2% of the radioactivity added for all MDCKII cell clones examined in this study.

[5] = substrate: O=C1OC(c2ccc(O)c(S(=O)(=O)O)c2)(c2ccc(O)c(S(=O)(=O)O)c2)c2c(Br)c(Br)c(Br)c(Br)c21; test: Uptake (intracellular accumulation) kinetics in ABCC2/OATP2B1 double-transfected MDCKII cells; type: in vitro ADME, human; settings: other: cell line ABCC2-OATP2B1; intracellular accumulation of 3H-labeled substrate; 5-min uptake; pH 7.3; 37.0 °C
Protocol: (§2) (a) MDCKII cells were grown on ThinCerts (24-mm diameter, pore size 0.4 μm, pore density 1×10^8 per cm^2) and induced with butyrate as mentioned above. […] The ^3H-labeled substrate was dissolved in transport buffer and added either to the apical or to the basolateral compartment at the concentration indicated. After incubation at 37° C., the radioactivity in the opposite compartment was measured by sampling aliquots from the apical or basolateral compartment. Cells were washed 2 times with ice-cold transport buffer containing 0.5% bovine serum albumin and 3 times in ice-cold transport buffer. Intracellular accumulation of radioactivity was calculated by lyzing the cells with 0.2% sodium dodecyl sulfate (SDS) and measuring the radioactivity in the lysate.

[6] = substrate: CC(C)n1c(/C=C/C(O)CC(O)CC(=O)O)c(-c2ccc(F)cc2)c2ccccc21; test: cells, lysate or membranes named; settings: intracellular accumulation of 3H-labeled substrate, 5-min uptake, pH 7.3, 37.0 °C
[7] = substrate: O=C1OC(c2ccc(O)c(S(=O)(=O)O)c2)(c2ccc(O)c(S(=O)(=O)O)c2)c2c(Br)c(Br)c(Br)c(Br)c21; test: Uptake (intracellular accumulation) kinetics in ABCC2/OATP1B1 double-transfected MDCKII cells; type: in vitro ADME, human; settings: other: cell line ABCC2-OATP1B1; intracellular accumulation of 3H-labeled substrate; 5-min uptake; pH 7.3; 37.0 °C
Protocol: as §2

T1 sequence (Q92887 whole entry): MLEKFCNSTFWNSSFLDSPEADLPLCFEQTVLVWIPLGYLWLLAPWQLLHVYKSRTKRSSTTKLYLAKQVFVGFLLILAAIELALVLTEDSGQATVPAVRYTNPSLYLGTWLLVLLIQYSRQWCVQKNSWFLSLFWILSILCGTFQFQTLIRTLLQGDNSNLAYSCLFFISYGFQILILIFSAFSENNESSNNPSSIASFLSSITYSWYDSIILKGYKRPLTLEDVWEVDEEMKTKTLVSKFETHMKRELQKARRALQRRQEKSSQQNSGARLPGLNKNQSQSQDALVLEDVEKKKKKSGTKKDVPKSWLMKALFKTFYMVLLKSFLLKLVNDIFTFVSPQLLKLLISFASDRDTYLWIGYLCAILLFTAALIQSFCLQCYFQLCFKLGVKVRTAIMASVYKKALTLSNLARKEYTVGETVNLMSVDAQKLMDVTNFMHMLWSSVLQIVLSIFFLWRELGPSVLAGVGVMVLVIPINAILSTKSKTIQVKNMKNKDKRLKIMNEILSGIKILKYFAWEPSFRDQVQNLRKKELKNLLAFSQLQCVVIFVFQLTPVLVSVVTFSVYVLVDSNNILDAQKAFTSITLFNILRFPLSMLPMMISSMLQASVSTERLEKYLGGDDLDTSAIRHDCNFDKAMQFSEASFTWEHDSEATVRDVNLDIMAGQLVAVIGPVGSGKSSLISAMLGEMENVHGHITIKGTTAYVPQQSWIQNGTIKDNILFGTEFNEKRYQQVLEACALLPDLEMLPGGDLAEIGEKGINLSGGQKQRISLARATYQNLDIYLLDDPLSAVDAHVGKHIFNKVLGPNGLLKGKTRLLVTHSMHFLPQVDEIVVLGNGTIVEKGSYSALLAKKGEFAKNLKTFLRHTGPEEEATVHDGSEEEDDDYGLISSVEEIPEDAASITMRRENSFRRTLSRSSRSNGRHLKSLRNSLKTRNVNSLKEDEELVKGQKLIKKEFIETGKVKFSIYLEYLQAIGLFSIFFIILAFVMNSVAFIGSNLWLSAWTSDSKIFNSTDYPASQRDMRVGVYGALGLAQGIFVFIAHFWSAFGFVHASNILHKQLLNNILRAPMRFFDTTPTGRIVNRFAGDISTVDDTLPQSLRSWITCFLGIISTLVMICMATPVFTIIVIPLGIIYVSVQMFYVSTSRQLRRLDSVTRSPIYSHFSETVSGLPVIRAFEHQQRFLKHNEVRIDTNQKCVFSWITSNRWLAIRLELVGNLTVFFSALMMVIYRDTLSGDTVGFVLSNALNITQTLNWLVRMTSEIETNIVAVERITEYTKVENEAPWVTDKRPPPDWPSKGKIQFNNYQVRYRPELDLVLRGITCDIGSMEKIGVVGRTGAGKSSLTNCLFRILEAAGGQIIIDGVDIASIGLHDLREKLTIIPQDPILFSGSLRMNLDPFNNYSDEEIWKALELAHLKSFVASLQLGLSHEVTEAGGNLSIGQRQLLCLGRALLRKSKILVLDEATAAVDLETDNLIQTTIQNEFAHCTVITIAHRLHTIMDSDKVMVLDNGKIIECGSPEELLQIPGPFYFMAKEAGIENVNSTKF

cholecystokinin-8 sulfate [CCK-8]
Km (ABCC2 [1]): 8.1 µM

C[C@]12CC[C@@H]3c4ccc(OS(=O)(=O)O)cc4CC[C@H]3[C@@H]1CCC2=O [estrone 3-sulfate]
ABCC2-mediated transport in the presence of ATP, enhanced compared to controls (ABCC2 [2]): 3.1 fold
transcellular (vectorial) transport, basolateral to apical [3]: transported transcellularly
transcellular (vectorial) transport, basolateral to apical ([3]; listed as [^3H]estrone 3-sulfate): detected

CC(C)n1c(/C=C/C(O)CC(O)CC(=O)O)c(-c2ccc(F)cc2)c2ccccc21 (centres unmarked) [Fluvastatin, fluvastatin]
Vmax (OATP1B3): 53.6 ± 11.0 pmol · mg protein^−1 · min^−1
Km at 5 min (OATP1B3; human, MDCKII cells double-transfected with ABCC2 and OATP1B3, pH 7.3, 5-min uptake, read-out: Km): 7 ± 2.5 µM
substrate for ABCC2 (ABCC2 [2]; human): not a substrate for ABCC2
Km [4]: 2.3 µM
Km at 5 min (OATP2B1): 0.7 µM

inulin [[^3H]inulin]
transcellular leakage (MDCKII cell clones): 1-2 % of the radioactivity added

B1: OATP2B1 (Homo sapiens) (protein)
chain: T3 sequence (O94956 1-709)
notes: expressed in transfected cells; host or cells: MDCKII (canine kidney) ABCC2 single-transfectant, further transfected with pcDNA3.1/Hygro(-)-OATP2B1
Km [5]: 3.4 µM
Km ([6]; other: cell line ABCC2-OATP2B1): 0.7 ± 0.3 µM
Vmax ([6]; other: cell line ABCC2-OATP2B1): 23.0 ± 2.6 pmol · mg protein^−1 · min^−1

B2: OATP1B1 (Homo sapiens) (protein)
chain: MDQNQHLNKTAEAQPSENKKTRYCNGLKMFLAALSLSFIAKTLGAIIMKSSIIHIERRFEISSSLVGFIDGSFEIGNLLVIVFVSYFGSKLHRPKLIGIGCFIMGIGGVLTALPHFFMGYYRYSKETNINSSENSTSTLSTCLINQILSLNRASPEIVGKGCLKESGSYMWIYVFMGNMLRGIGETPIVPLGLSYIDDFAKEGHSSLYLGILNAIAMIGPIIGFTLGSLFSKMYVDIGYVDLSTIRITPTDSRWVGAWWLNFLVSGLFSIISSIPFFFLPQTPNKPQKERKASLSLHVLETNDEKDQTANLTNQGKNITKNVTGFFQSFKSILTNPLYVMFVLLTLLQVSSYIGAFTYVFKYVEQQYGQPSSKANILLGVITIPIFASGMFLGGYIIKKFKLNTVGIAKFSCFTAVMSLSFYLLYFFILCENKSVAGLTMTYDGNNPVTSHRDVPLSYCNSDCNCDESQWEPVCGNNGITYISPCLAGCKSSSGNKKPIVFYNCSCLEVTGLQNRNYSAHLGECPRDDACTRKFYFFVAIQVLNLFFSALGGTSHVMLIVKIVQPELKSLALGFHSMVIRALGGILAPIYFGALIDTTCIKWSTNNCGTRGSCRTYNSTSFSRVYLGLSSMLRVSSLVLYIILIYAMKKKYQEKDINASENGSVMDEANLESLNKNKHFVPSAGADSETHC
notes: expressed in transfected cells; host or cells: MDCKII (canine kidney), co-expressing ABCC2
Km ([6]; other: cell line ABCC2-OATP1B1): 2.4 ± 0.9 µM
Vmax ([6]; other: cell line ABCC2-OATP1B1): 43.4 ± 6.7 pmol · mg protein^−1 · min^−1
Km [7]: 2.4 µM
Vmax [7]: 41.5 ± 5.2 pmol · mg protein^−1 · min^−1
